Assay results published in US8653304B2, “2,3-dihydro-1H-indene-2-yl urea derivative and pharmaceutical application of same” (Toray Industries, Inc., priority 2009, dated 2014).
Where a name gives a salt, the structure may show the parent alone.

Key:
[1] = test system: Human CYP (Cytochrome P450); experiment: Metabolic stability in human CYP (human liver microsomes); type: in vitro ADME; settings: human liver microsomes 0.5 mg/mL, NADPH, 37° C., comparative control compounds 5 μM
Experimental: Each test compound was mixed at a concentration of 2 μM with a phosphate buffer solution containing Human liver microsomes (Xenotech) in an amount of 0.5 mg/mL. Thereafter, NADPH was added thereto, and the obtained mixture was allowed to react at 37° C. for up to 30 minutes. The reaction was terminated by adding acetonitrile, and then the resultant was centrifuged for 10 minutes at 4° C. to collect a supernatant. The supernatant was pretreated by methanol extraction method, and the concentration of the compound was analyzed by LC/MS/MS (ESI positive mode). The compound remaining rate was calculated from the obtained concentration of the compound.

[2] = test system: U937 cells; experiment: Ability to induce drug-induced phospholipidosis (U937, Nile red, flow cytometer); type: cell-based, human; settings: 48 hours, 20 μM, fluorescence intensity compared to valproic acid 300 μM
Experimental: The evaluation of Comparative Compound 4c, which was a comparative control compound, was carried out by a method partially modified from the method described in Cell Biology and Toxicology (2003, Vol. 19, pp. 161-176).
Each test compound was mixed with U937 cells, which are a cell line derived from human monocytes, and the cells were cultured in the presence of 5% CO2 at 37° C. for 48 hours. The cell suspension after the culturing was replaced with a PBS solution containing Nile red (Invitrogen) which is a phospholipid staining solution, and the resulting mixture was allowed to react in the dark at room temperature for 10 minutes. After centrifugal washing with PBS solution, the fluorescence intensity was measured with a flow cytometer (Becton Dickinson) (Excitation Wavelength: 488 nm, Detection Region: 515-545 nm). As a negative control substance, valproic acid (300 μM) was used. […] Each test compound was dissolved in DMSO before use, and the resulting solution was added to the cells such that the final concentration of DMSO was 1%.

## Cc1ccc(-n2nc(C(C)(C)C)cc2NC(=O)Nc2ccc(OCCN3CCOCC3)c3ccccc23)cc1 [Comparative Compound 4c, 1-(3-tert-butyl-1-p-tolyl-1H-pyrazol-5-yl)-3-(4-(2-morpholinoethoxy)naphthalen-1-yl)urea.hydrochloride]
[1]
  microsomal CLint at 5 μM: 321 µL/min/mg
[2]
  phospholipidosis judgement: positive
